From patent US10399989B2, “Pyrazolopyrimidine derivatives as BTK inhibitors for the treatment of cancer” (Loxo Oncology, Inc., priority 2016, dated 2019)
Like-named read-outs stand apart in the source and are kept apart here.

Assays:
[1] = target: BTK^WT (Homo sapiens (Human), UniProt Q06187); test: BTK^WT binding affinity (TR-FRET, LanthaScreen)
Description: BTK^WT binding affinity of each compound tested was determined using a time-resolved fluorescence resonance energy transfer (TR-FRET) methodology. 2.5 nM Recombinant BTK^WT kinase, varying concentrations of inhibitor, 2 nM LanthaScreen™ Eu anti-His Antibody and 15 nM Kinase Tracer 236 was incubated in 1× LanthaScreen™ Kinase Buffer A for 5 h. Recombinant BTK kinase and all LanthaScreen™ components were purchased from Invitrogen. Measurements were performed in a reaction volume of 30 μL using half-area 96-well assay plates. The TR-FRET signal was read on a plate reader with an excitation wavelength of 340 nm and detection wavelengths of 615 and 665 nm. Binding affinity was determined for each compound by measuring TR-FRET signal at various concentrations of compound and plotting the relative fluorescence units against the inhibitor concentration to estimate the IC50 from log [Inhibitor] vs response using the Variable Slope model in Graphpad prism from Graphpad software (SanDiego, Calif.).

[2] = target: BTK^C481S (Homo sapiens (Human), UniProt Q06187, C481S); test: BTK^C481S binding affinity (TR-FRET, LanthaScreen); details: 5 h incubation
Chain of BTK^C481S (Q06187 whole entry C481S): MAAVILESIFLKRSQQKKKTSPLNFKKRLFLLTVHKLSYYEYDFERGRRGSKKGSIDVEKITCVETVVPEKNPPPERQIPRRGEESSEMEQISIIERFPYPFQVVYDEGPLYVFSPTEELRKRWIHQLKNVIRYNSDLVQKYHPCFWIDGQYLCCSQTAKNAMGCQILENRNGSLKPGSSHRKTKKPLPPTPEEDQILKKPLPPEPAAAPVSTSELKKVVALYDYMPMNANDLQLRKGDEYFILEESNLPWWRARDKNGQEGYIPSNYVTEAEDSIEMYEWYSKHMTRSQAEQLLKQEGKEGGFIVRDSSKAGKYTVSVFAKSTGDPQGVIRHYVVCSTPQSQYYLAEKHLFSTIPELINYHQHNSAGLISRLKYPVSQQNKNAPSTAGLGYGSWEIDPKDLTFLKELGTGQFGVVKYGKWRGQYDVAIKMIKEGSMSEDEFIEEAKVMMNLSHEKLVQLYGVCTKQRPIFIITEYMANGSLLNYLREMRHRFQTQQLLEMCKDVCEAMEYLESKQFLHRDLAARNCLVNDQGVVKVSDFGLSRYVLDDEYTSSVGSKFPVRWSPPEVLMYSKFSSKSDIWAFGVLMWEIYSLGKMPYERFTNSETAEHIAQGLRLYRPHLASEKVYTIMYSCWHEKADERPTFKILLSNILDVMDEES
Description: BTK^C481S binding affinity of each compound tested was determined using a time-resolved fluorescence resonance energy transfer (TR-FRET) methodology. 5 nM Recombinant […] kinase, varying concentrations of inhibitor, 2 nM LanthaScreen™ Eu anti-His Antibody and 30 nM Kinase Tracer 236 was incubated in 1× LanthaScreen™ Kinase Buffer A for 5 h. Recombinant BTK^C481S kinase was purchased from SignalChem and all LanthaScreen™ components were purchased from Invitrogen. Measurements were performed in a reaction volume of 30 μL using half-area 96-well assay plates. The TR-FRET signal was read on a plate reader with an excitation wavelength of 340 nm and detection wavelengths of 615 and 665 nm. Binding affinity was determined for each compound by measuring TR-FRET signal at various concentrations of compound and plotting the relative fluorescence units against the inhibitor concentration to estimate the IC50 from log [Inhibitor] vs response using the Variable Slope model in Graphpad prism from Graphpad software (SanDiego, Calif.).

[3] = target: EGFR (Homo sapiens (Human), UniProt P00533); test: EGFR binding affinity (TR-FRET, LanthaScreen); details: 5 h incubation
Chain of EGFR (P00533 25-1210): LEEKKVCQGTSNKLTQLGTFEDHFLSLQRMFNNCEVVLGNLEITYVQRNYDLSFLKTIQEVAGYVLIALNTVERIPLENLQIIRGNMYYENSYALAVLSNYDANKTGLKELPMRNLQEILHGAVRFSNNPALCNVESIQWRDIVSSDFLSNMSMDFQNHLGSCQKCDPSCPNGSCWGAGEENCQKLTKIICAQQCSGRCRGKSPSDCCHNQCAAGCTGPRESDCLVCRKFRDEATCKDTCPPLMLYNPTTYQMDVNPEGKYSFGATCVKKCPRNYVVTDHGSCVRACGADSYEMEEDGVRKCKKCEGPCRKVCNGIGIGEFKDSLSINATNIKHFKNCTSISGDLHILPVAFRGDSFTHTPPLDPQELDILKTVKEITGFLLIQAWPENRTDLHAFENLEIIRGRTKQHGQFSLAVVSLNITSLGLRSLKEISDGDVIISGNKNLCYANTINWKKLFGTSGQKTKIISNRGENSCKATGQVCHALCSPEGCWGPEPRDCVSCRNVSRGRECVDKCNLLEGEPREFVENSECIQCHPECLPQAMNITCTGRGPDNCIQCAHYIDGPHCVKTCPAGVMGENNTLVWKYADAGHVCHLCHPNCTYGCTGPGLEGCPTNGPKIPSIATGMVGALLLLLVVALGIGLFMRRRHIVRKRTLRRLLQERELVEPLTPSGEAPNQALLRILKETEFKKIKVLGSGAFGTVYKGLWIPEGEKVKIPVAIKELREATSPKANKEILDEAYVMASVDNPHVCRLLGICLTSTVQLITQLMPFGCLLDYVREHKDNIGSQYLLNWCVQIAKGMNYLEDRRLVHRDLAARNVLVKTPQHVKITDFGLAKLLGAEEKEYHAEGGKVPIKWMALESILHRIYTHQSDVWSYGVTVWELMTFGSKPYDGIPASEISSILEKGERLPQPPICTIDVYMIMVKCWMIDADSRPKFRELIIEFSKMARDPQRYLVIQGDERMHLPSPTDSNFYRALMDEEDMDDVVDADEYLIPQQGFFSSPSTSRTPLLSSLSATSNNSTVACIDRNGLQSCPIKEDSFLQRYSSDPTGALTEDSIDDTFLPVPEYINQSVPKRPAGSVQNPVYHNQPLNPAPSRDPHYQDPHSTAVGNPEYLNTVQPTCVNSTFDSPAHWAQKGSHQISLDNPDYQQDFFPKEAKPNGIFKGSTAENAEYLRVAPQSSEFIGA
Description: EGFR binding affinity was determined using a time-resolved fluorescence resonance energy transfer (TR-FRET) methodology. 2.5 nM Recombinant EGFR, varying concentrations of inhibitor, 2 nM LanthaScreen™ Eu anti-GST Antibody and 3 nM Kinase Tracer 199 was incubated in 1× LanthaScreen™ Kinase Buffer A for 5 h. Recombinant EGFR and all LanthaScreen™ components were purchased from Invitrogen. Measurements were performed in a reaction volume of 30 μL using half-area 96-well assay plates. The TR-FRET signal was read on a plate reader with an excitation wavelength of 340 nm and detection wavelengths of 615 and 665 nm. Binding affinity was determined for each compound by measuring TR-FRET signal at various concentrations of compound and plotting the relative fluorescence units against the inhibitor concentration to estimate the IC50 from log [Inhibitor] vs response using the Variable Slope model in Graphpad prism from Graphpad software (SanDiego, Calif.).

[4] = system: OCI-Ly10 human DLBCL cells; test: OCI-Ly10 anti-proliferative activity (Resazurin, 72 h); assay type: cell-based; details: Homo sapiens, OCI-Ly10, 72 h, read-out: Proliferation OCI-Ly10-IC50
Description: Compounds were assayed for effects on the growth of OCI-Ly10 human DLBCL cells that are dependent on NFκB signalling. OCI-Ly10 cells were grown in suspension in T225 flasks, centrifuged and re-suspended in 2.5% FBS containing media. Cells were then plated at 7.5×10^3 cells per well in 96-well plates in varying concentrations of compound and incubated for 72 h at 37° C. An additional plate of cells to be used as the Day 0 read was seeded without compound addition, Resazurin was added to each well, incubated for 5 h and the fluorescence measured at 590 nm. After 72 h of compound treatment, Resazurin was added to each well of the compound treated plates, incubated for 5 h and the fluorescence measured at 590 nm. The IC50 was then calculated by subtracting the average Day 0 value from each well value from the treated plates, each treatment was then calculated as a percentage of the DMSO control and the percentages plotted against the inhibitor concentration to estimate the IC50 from log [Inhibitor] vs response using the Variable Slope model in Graphpad prism from Graphpad software (SanDiego, Calif.).

[5] = TR-FRET binding, 5 h incubation, read-out: BTK^WT IC50
[6] = Table 6, numeric values, read-out: BTK Binding IC50

Chain of BTK^WT (Q06187 whole entry): as the sequence (Q06187 whole entry C481S) above, with S481C counted along it

| Compound | IC50 [1, 5] | IC50 [2] | IC50 [3] | IC50 [4] | IC50 [1, 6] |
| --- | --- | --- | --- | --- | --- |
| COc1ccccc1C(=O)NCc1ccc(-c2nn([C@H]3CC[C@@H](C(=O)N(C)C)CC3)c3ncnc(N)c23)cc1 (single isomer, unassigned; isomer 2) [33-isomer 2] | ≤ 10 nM | ≤ 10 nM |  |  |  |
| Nc1ncnc2c1c(-c1ccc(CNC(=O)c3ccccc3F)cc1)nn2C1CCCC1 [Example 2, N-[[4-(4-amino-1-cyclopentyl-pyrazolo[3,4-d]pyrimidin-3-yl)phenyl]methyl]-2-fluoro-benzamide] |  |  | 10 to 100 nM | 1000 to 10000 nM |  |
| Nc1ncnc2c1c(-c1ccc(CNC(=O)c3ccccc3OC(F)(F)F)cc1)nn2C1CCCC1 [Example 6, N-[[4-(4-Amino-1-cyclopentyl-pyrazolo[3,4-d]pyrimidin-3-yl)phenyl]methyl]-2-(trifluoromethoxy)benzamide] | 100 to 1000 nM |  | 100 to 1000 nM |  |  |
| COc1cc(Cl)ccc1C(=O)NCc1ccc(-c2nn(C3CCCC3)c3ncnc(N)c23)cc1 [Example 9, N-[[4-(4-amino-1-cyclopentyl-pyrazolo[3,4-d]pyrimidin-3-yl)phenyl]methyl]-4-chloro-2-methoxy-benzamide] |  |  | > 10000 nM | 100 to 1000 nM |  |
| COc1ccccc1C(=O)N(C)Cc1ccc(-c2nn(C3CCCC3)c3ncnc(N)c23)cc1 [Example 17, N-[[4-(4-Amino-1-cyclopentyl-pyrazolo[3,4-d]pyrimidin-3-yl)phenyl]methyl]-2-methoxy-N-methyl-benzamide] |  |  | 1000 to 10000 nM |  |  |
| COc1ccccc1C(=O)NCc1ccc(-c2nn(C3CCC4(CC3)OCCO4)c3ncnc(N)c23)cc1 [Example 19, N-[[4-[4-amino-1-(1,4-dioxaspiro[4.5]decan-8-yl)pyrazolo[3,4-d]pyrimidin-3-yl]phenyl]methyl]-2-methoxy-benzamide] | ≤ 10 nM | ≤ 10 nM |  |  |  |
| N#Cc1cccc(C(=O)NCc2ccc(-c3nn(C4CCCC4)c4ncnc(N)c34)cc2)c1 [Example 20, N-[[4-(4-amino-1-cyclopentyl-pyrazolo[3,4-d]pyrimidin-3-yl)phenyl]methyl]-3-cyano-benzamide] |  |  | 1000 to 10000 nM |  |  |
| COc1c(C)cccc1C(=O)NCc1ccc(-c2nn(C3CCCC3)c3ncnc(N)c23)cc1 [Example 22, N-[[4-(4-amino-1-cyclopentyl-pyrazolo[3,4-d]pyrimidin-3-yl)phenyl]methyl]-2-methoxy-3-methyl-benzamide] |  |  | 1000 to 10000 nM |  |  |
| COc1ccccc1C(=O)NCc1ccc(-c2nn(C3CCC(C(=O)O)CC3)c3ncnc(N)c23)cc1 (stereo not shown) [Example 30, 4-[4-amino-3-[4-[[(2-methoxybenzoyl)amino]methyl]phenyl]pyrazolo[3,4-d]pyrimidin-1-yl]cyclohexanecarboxylic acid] | ≤ 10 nM | ≤ 10 nM | 100 to 1000 nM |  | 1.4 nM |
| COc1ccccc1C(=O)NCc1ccc(-c2nn([C@@H]3CCc4ccccc43)c3ncnc(N)c23)cc1 [Example 56, N-[(4-{4-amino-1-[(1R)-2,3-dihydro-1H-inden-1-yl]-1H-pyrazolo[3,4-d]pyrimidin-3-yl}phenyl)methyl]-2-methoxybenzamide] | ≤ 10 nM | ≤ 10 nM |  |  | 1.2 nM |
| COc1ccccc1C(=O)NC1(c2ccc(-c3nn(C4CCCC4)c4ncnc(N)c34)cc2)CC1 [Example 67, N-[1-[4-(4-amino-1-cyclopentyl-pyrazolo[3,4-d]pyrimidin-3-yl)phenyl]cyclopropyl]-2-methoxy-benzamide] | 1000 to 10000 nM | 1000 to 10000 nM | 1000 to 10000 nM |  |  |
| COc1cc2ccccc2cc1C(=O)NCc1ccc(-c2nn(C3CCCC3)c3ncnc(N)c23)cc1 [Example 71, N-[[4-(4-amino-1-cyclopentyl-pyrazolo[3,4-d]pyrimidin-3-yl)phenyl]methyl]-3-methoxy-naphthalene-2-carboxamide] | 100 to 1000 nM | 100 to 1000 nM |  |  |  |
| Nc1ncnc2c1c(-c1ccc(CNC(=O)c3ccc4ccccc4c3)cc1)nn2C1CCCC1 [Example 72, N-[[4-(4-amino-1-cyclopentyl-pyrazolo[3,4-d]pyrimidin-3-yl)phenyl]methyl]naphthalene-2-carboxamide] | 100 to 1000 nM |  |  |  |  |
| COc1ccccc1C(=O)NCc1c(F)cc(-c2nn(C3CCCC3)c3ncnc(N)c23)cc1F [Example 73, N-[[4-(4-amino-1-cyclopentyl-pyrazolo[3,4-d]pyrimidin-3-yl)-2,6-difluoro-phenyl]methyl]-2-methoxy-benzamide] | 100 to 1000 nM | 10 to 100 nM | 1000 to 10000 nM |  |  |
| COc1ccccc1C(=O)NCc1ccc(-c2nn(C(C)C)c3ncnc(N)c23)cc1 [Example 78, N-[[4-(4-amino-1-isopropyl-pyrazolo[3,4-d]pyrimidin-3-yl)phenyl]methyl]-2-methoxy-benzamide] | ≤ 10 nM | ≤ 10 nM | 1000 to 10000 nM |  |  |
| COc1ccccc1C(=O)NCc1ccc(-c2nn(C3CCCC3)c3ncnc(N)c23)c(C)c1 [Example 79, N-[[4-(4-amino-1-cyclopentyl-pyrazolo[3,4-d]pyrimidin-3-yl)-3-methyl-phenyl]methyl]-2-methoxy-benzamide] | ≤ 10 nM | ≤ 10 nM | 1000 to 10000 nM |  |  |
| CC(C)(C)n1nc(-c2ccc(CNC(=O)c3cc4ccccc4o3)cc2)c2c(N)ncnc21 [Example 81, N-[[4-(4-amino-1-tert-butyl-pyrazolo[3,4-d]pyrimidin-3-yl)phenyl]methyl]benzofuran-2-carboxamide] | 1000 to 10000 nM |  |  | 1000 to 10000 nM |  |
| Nc1ncnc2c1c(-c1ccc(CNC(=O)c3nc4ccccc4s3)cc1)nn2C1CCCC1 [Example 82, N-[[4-(4-amino-1-cyclopentyl-pyrazolo[3,4-d]pyrimidin-3-yl)phenyl]methyl]-1,3-benzothiazole-2-carboxamide] | > 10000 nM |  | > 10000 nM |  |  |
| Nc1ncnc2c1c(-c1ccc(CNC(=O)c3cc4ccccc4o3)cc1)nn2C1CCCC1 [Example 83, N-[[4-(4-amino-1-cyclopentyl-pyrazolo[3,4-d]pyrimidin-3-yl)phenyl]methyl]benzofuran-2-carboxamide] | > 10000 nM |  |  |  |  |
| Nc1ncnc2c1c(-c1ccc(CNC(=O)c3cc4ccccc4s3)cc1)nn2C1CCCC1 [Example 84, N-[[4-(4-amino-1-cyclopentyl-pyrazolo[3,4-d]pyrimidin-3-yl)phenyl]methyl]benzothiophene-2-carboxamide] | 1000 to 10000 nM |  |  |  |  |
| Nc1ncnc2c1c(-c1ccc(CNC(=O)c3ccc4ccccc4n3)cc1)nn2C1CCCC1 [Example 85, N-[[4-(4-amino-1-cyclopentyl-pyrazolo[3,4-d]pyrimidin-3-yl)phenyl]methyl]quinoline-2-carboxamide] | 1000 to 10000 nM |  |  |  |  |
| Nc1ncnc2c1c(-c1ccc(CNC(=O)C3CNc4ccccc4O3)cc1)nn2C1CCCC1 (stereo not shown) [Example 86, N-[[4-(4-Amino-1-cyclopentyl-pyrazolo[3,4-d]pyrimidin-3-yl)phenyl]methyl]-3,4-dihydro-2H-1,4-benzoxazine-2-carboxamide] | > 10000 nM | > 10000 nM |  |  |  |
| Nc1ncnc2c1c(-c1ccc(CNC(=O)c3cccc4ncoc34)cc1)nn2C1CCCC1 [Example 87, N-[[4-(4-amino-1-cyclopentyl-pyrazolo[3,4-d]pyrimidin-3-yl)phenyl]methyl]-1,3-benzoxazole-7-carboxamide] | 1000 to 10000 nM |  |  |  |  |
| Nc1ncnc2c1c(-c1ccc(CNC(=O)c3cc4ccccc4[nH]3)cc1)nn2C1CCCC1 [Example 88, N-[[4-(4-amino-1-cyclopentyl-pyrazolo[3,4-d]pyrimidin-3-yl)phenyl]methyl]-1H-indole-2-carboxamide] |  |  | 1000 to 10000 nM |  |  |
